Reference: article PMC9329436, “Optimization of the 4-anilinoquin(az)oline scaffold as epidermal growth factor receptor (EGFR) inhibitors for chordoma utilizing a toxicology profiling assay platform” (Scientific Reports, 2022)
Like-named read-outs stand apart in the source and are kept apart here.

Experiments:
U-CH2 chordoma cell line [1] = assay: Cell viability assay (alamarBlue, 72 h), U-CH2; assay type: cell-based, human
In short: (§1)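 Cells grown in 4:1 IMDM:RPMI with 10% FBS on gel-coated flasks, dosed in quadruplicate 24 h after seeding in 384-well plates.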

U-CH1 chordoma cell line [2] = details: previously reported, Figure 1; cited from earlier work
[3] = system: WS1 human fibroblast cell line; assay: Cell viability assay, WS1 toxicity control; assay type: cell-based; details: n = 4, nonspecific toxicity control
Description: (§2) Cells were seeded in 384 well plates and were treated with test compound in quadruplicate 24 h after plating. Cell viability was assessed at 72 h using alamarBlue (ThermoFisher, USA). […] IC50 values were determined by four-parameter nonlinear regression analyses using GraphPad Prism™ version 8 software (San Diego, CA).

HL60 cells = assay: AsedaSciences SYSTEMETRIC Cell Health Screen (flow cytometry toxicity profiling); details: HL60, 4 h, 5 nM–100 µM; for CC: Cell Cycle score / CM: Cell morphology score / CMI: Cell membrane integrity score / GSH: Glutathione score / MMP: Mitochondrial membrane depolarization score / NMI1: Nuclear membrane integrity 1 score / NMI2: Nuclear membrane integrity 2 score / ROS: Reactive superoxide species score: probability 0–1, n = 2; for CHI: Cell Health Index: probability (0–1) of high-risk class, n = 2
In short: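 HL60 cells (100,000 per well) exposed 4 h at 37 °C, 5% CO2 to 10-step 3× dilutions (5 nM–100 µM), in duplicate. Cells then stained with mitochondrial and cell-stress reporter dyes and read by ungated flow cytometry over twelve parameters. Cell Health Index and eight endpoint scores come from an ML classifier trained on 300 high/low-risk compounds.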

[4] = system: U-CH7 patient-derived chordoma cell line; assay: Cell viability assay (alamarBlue, 72 h), U-CH7; assay type: cell-based, human; details: n = 4, 72 h
Description: (§3) Chordoma cell lines were cultured as described previously[10],[12],[33],[34]. Briefly, U-CH1 and U-CH2 cell lines were cultured in 4:1 IMDM:RPMI medium supplemented with 10% fetal bovine serum (FBS) and 1% penicillin/streptomycin in gel-coated flasks. […] CH22, UM-Chor1, U-CH12, and U-CH7 cell lines were cultured in RPMI medium supplemented with 10% FBS and 1% penicillin/streptomycin. The cell lines all undergo regular mycoplasma screening.
as §2

[5] = system: CH22 patient-derived chordoma cell line; assay: Cell viability assay (alamarBlue, 72 h), CH22; assay type: cell-based, human; details: n = 4, 72 h
Description: as §3, §2

U-CH1 chordoma cell line [6] = assay: Cell viability assay (alamarBlue, 72 h), U-CH1; assay type: cell-based, human; details: n = 4, 72 h
In short: as §1

[7] = system: U-CH12 patient-derived chordoma cell line; assay: Cell viability assay (alamarBlue, 72 h), U-CH12; assay type: cell-based, human; details: n = 4, 72 h
Description: as §3, §2

EGFR = EGFR (Homo sapiens, UniProt P00533); assay: ProQinase in-cell EGFR assay (EGFR phosphorylation in A431 cells); assay type: cell-based; set-up: This cell line endogenously expresses a high level of EGFR; endogenous in cells; host or cells: A431
Source text: In addition, we ran an EGFR in-cell target engagement assay, measuring in-cell EGFR phosphorylation, using the human epidermoid carcinoma cell line A431. This cell line endogenously expresses a high level of EGFR, and stimulation of these cells with human epidermal growth factor (EGF) results in receptor tyrosine autophosphorylation.

U-CH2 chordoma cell line [8] = details: previously reported, Figure 1; cited from earlier work
[9] = system: UM-Chor1 patient-derived chordoma cell line; assay: Cell viability assay (alamarBlue, 72 h), UM-Chor1; assay type: cell-based, human; details: n = 4, 72 h
Description: as §3, §2

[10] = ProQinase in-cell EGFR assay, A431 cells, n = 1

Sequence of EGFR (P00533 25-1210): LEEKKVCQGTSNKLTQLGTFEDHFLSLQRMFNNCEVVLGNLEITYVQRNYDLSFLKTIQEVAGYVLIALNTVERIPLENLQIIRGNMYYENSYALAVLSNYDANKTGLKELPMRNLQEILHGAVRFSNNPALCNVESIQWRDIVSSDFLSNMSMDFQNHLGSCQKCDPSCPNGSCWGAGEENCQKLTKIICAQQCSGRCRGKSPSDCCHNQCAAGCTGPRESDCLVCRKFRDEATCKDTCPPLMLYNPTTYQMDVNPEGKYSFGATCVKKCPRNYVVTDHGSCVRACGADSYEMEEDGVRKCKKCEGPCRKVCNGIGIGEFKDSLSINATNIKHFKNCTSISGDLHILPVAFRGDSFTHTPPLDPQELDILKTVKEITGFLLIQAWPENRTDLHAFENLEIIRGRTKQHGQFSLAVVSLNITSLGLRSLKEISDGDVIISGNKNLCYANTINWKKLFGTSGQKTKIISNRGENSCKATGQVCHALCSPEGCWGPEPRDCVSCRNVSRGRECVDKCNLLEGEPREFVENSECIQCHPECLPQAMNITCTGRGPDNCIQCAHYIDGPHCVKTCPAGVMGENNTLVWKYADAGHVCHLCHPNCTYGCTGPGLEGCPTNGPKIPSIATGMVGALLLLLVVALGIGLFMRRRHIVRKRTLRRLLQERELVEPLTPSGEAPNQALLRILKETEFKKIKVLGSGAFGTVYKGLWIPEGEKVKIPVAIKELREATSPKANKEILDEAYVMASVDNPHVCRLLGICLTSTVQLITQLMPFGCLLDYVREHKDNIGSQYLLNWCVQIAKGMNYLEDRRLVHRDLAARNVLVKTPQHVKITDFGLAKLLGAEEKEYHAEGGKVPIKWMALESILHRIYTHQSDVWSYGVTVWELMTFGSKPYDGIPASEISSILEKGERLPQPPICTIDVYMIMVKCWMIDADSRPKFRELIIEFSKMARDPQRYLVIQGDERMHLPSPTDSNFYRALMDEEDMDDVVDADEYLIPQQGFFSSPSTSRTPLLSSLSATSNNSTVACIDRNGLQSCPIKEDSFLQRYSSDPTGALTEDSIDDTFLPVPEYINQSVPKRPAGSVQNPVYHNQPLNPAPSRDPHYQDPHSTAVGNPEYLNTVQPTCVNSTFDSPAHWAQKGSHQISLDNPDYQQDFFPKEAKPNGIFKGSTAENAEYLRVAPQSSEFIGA

SMILES	IC50 (U-CH1 chordoma cell line [2])	CC: Cell Cycle score (HL60 cells)	CM: Cell morphology score (HL60 cells)	CMI: Cell membrane integrity score (HL60 cells)	GSH: Glutathione score (HL60 cells)	MMP: Mitochondrial membrane depolarization score (HL60 cells)	NMI1: Nuclear membrane integrity 1 score (HL60 cells)	NMI2: Nuclear membrane integrity 2 score (HL60 cells)	ROS: Reactive superoxide species score (HL60 cells)	CHI: Cell Health Index (HL60 cells)	IC50 (U-CH1 chordoma cell line [6])	IC50 (EGFR; [10])	IC50 (U-CH2 chordoma cell line [8])	IC50 (U-CH2 chordoma cell line [1]; n = 4, 72 h)	IC50 [3]	IC50 [4]	IC50 [5]	IC50 [7]	IC50 [9]	other results
C#Cc1cccc(Nc2ncnc3cc(OC)c(OC)cc23)c1 [Compound 1, N-(3-ethynylphenyl)-6,7-dimethoxyquinazolin-4-amine]	0.92 µM	0.086	0.85	0.11	0.18	0.39	0.47	0.41	0.32	0.41	0.63 µM	0.019 µM	> 50 µM							IC50 (U-CH2 chordoma cell line [1]; Homo sapiens, UCH2, n = 4, 72 h): 66 µM; IC50 ([3]; Homo sapiens, Fibroblast): 15 µM; IC50 ([4]; Homo sapiens): 23 µM; IC50 ([5]; Homo sapiens): > 100 µM; IC50 (U-CH1 chordoma cell line [6]; Homo sapiens, UCH1, 72 h): < 1 µM; IC50 ([7]; Homo sapiens): > 100 µM; IC50 ([9]; Homo sapiens): 28 µM
CN(C)C/C=C/C(=O)Nc1cc2c(Nc3ccc(F)c(Cl)c3)ncnc2cc1O[C@H]1CCOC1 [Afatinib, reference compound]	0.1 µM	0.93	1.00	1.00	1.00	1.00	1.00	0.99	1.00	0.92			6.4 µM							
C#Cc1cc(Nc2ncnc3cc(OC)c(OC)cc23)ccc1F [Compound 44]		0.027	0.83	0.40	0.054	0.15	0.44	0.18	0.66	0.34	> 100 µM	0.03 µM		22 µM	0.33 µM	0.68 µM	0.3 µM	0.87 µM	7.2 µM	IC50 (EGFR; in-cell EGFR inhibition): < 0.1 µM
C#Cc1cc(Nc2ncnc3ccc(I)cc23)ccc1Cl [Compound 37]		0.080	0.26	0.54	0.18	0.24	0.41	0.33	0.91	0.33	31 µM	2 µM		5 µM	> 100 µM	> 100 µM	> 100 µM	> 100 µM	> 100 µM	
